Values joined by “and” are separate entries in the source; they are usually repeats but may differ in a detail not shown here. Equal entries are not always repeated. Non-standard residues stand in square brackets, D forms with d. Residues, ends and D or L forms follow the SMILES beside them. Ac5c = NC1(C(=O)O)CCCC1
System: C57BL/6 mice, Adenocarcinoma 755 sc, tumor weight T/C
Experiment: NCI In Vivo Anticancer Drug Screen. Data for tumor model Adenocarcinoma 755 (subcutaneous) in C57BL/6 mice
Details: endpoint: mean tumor weight, higher = larger tumour
Experimental: The antitumor activity of compounds was measured in mice bearing transplantable tumors. Survival or tumor size were measured and the results are expressed as the measurement made in the treated group (T) divided by the measurement made in the vehicle treated control group (C). The tumor model used in this assay is Adenocarcinoma 755 (subcutaneous) in C57BL/6 mice

[1] = dose: 200.0 mg/kg/injection, schedule: Q01DX011 (ip), vehicle: saline
[2] = dose: 4.0 mg/kg/injection, schedule: Q01DX011 (ip), vehicle: saline
[3] = dose: 8.0 mg/kg/injection, schedule: Q01DX011 (ip), vehicle: saline
[4] = dose: 10.0 mg/kg/injection, schedule: Q01DX011 (ip), vehicle: carboxymethylcellulose (CMC)
[5] = dose: 20.0 mg/kg/injection, schedule: Q01DX011 (ip), vehicle: carboxymethylcellulose (CMC)
[6] = dose: 25.0 mg/kg/injection, schedule: Q01DX011 (ip), vehicle: saline
[7] = dose: 30.0 mg/kg/injection, schedule: Q01DX011 (ip), vehicle: saline
[8] = dose: 40.0 mg/kg/injection, schedule: Q01DX011 (ip), vehicle: saline
[9] = dose: 50.0 mg/kg/injection, schedule: Q01DX011 (ip), vehicle: saline
[10] = dose: 20.0 mg/kg/injection, schedule: Q01DX011 (ip), vehicle: saline

## O=c1[nH][nH]c(=O)[nH]1
[1]
  T/C: 85 % of control
dose: 225.0 mg/kg/injection, schedule: Q01DX011 (ip), vehicle: saline
  T/C: 94 % of control

## O=C(O)CCCc1ccc(N(CCCl)CCCl)cc1
dose: 1.0 mg/kg/injection, schedule: Q01DX011 (ip), vehicle: saline
  T/C: 73 % of control
[2]
  T/C: 80 % of control
[3]
  T/C: 51 % of control
dose: 16.0 mg/kg/injection, schedule: Q01DX011 (ip), vehicle: saline
  T/C: 98 % of control

## Nc1nc2n[nH]nc2c(=O)[nH]1
dose: 37.5 mg/kg/injection, schedule: Q01DX007 (sc), vehicle: carboxymethylcellulose (CMC)
  T/C: 51 % of control and 66 % of control
dose: 37.5 mg/kg/injection, schedule: Q01DX011 (ip), vehicle: saline
  T/C: 10 % of control
dose: 37.5 mg/kg/injection, schedule: Q01DX011 (sc), vehicle: saline
  T/C: 25 % of control
dose: 50.0 mg/kg/injection, schedule: Q01DX011 (sc), vehicle: saline
  T/C: 16 % of control
dose: 50.0 mg/kg/injection, schedule: Q02DX006 (ip), vehicle: other
  T/C: 57 % of control
dose: 60.0 mg/kg/injection, schedule: Q02DX006 (ip), vehicle: other
  T/C: 64 % of control
dose: 75.0 mg/kg/injection, schedule: Q01DX011 (ip), vehicle: saline
  T/C: 6 % of control
dose: 75.0 mg/kg/injection, schedule: Q01DX011 (sc), vehicle: saline
  T/C: 4 % of control
dose: 100.0 mg/kg/injection, schedule: Q01DX007 (sc), vehicle: carboxymethylcellulose (CMC)
  T/C: 5 % of control and 14 % of control

## CS(=O)(=O)OCCCCOS(C)(=O)=O
dose: 2.5 mg/kg/injection, schedule: Q01DX011 (ip), vehicle: carboxymethylcellulose (CMC)
  T/C: 86 % of control
dose: 5.0 mg/kg/injection, schedule: Q01DX011 (ip), vehicle: carboxymethylcellulose (CMC)
  T/C: 57 % of control
[4]
  T/C: 69 % of control
dose: 10.0 mg/kg/injection, schedule: Q02DX006 (ip), vehicle: other
  T/C: 59 % of control
dose: 12.5 mg/kg/injection, schedule: Q02DX006 (ip), vehicle: other
  T/C: 51 % of control
dose: 15.0 mg/kg/injection, schedule: Q01DX011 (ip), vehicle: carboxymethylcellulose (CMC)
  T/C: 56 % of control
dose: 15.0 mg/kg/injection, schedule: Q02DX006 (ip), vehicle: other
  T/C: 76 % of control
[5]
  T/C: 49 % of control
dose: 25.0 mg/kg/injection, schedule: Q01DX011 (ip), vehicle: carboxymethylcellulose (CMC)
  T/C: 26 % of control

## CN1CC(=O)N=C1N
dose: 1000.0 mg/kg/injection, schedule: Q01DX011 (ip), vehicle: saline
  T/C: 121 % of control

## c1ccc(CNc2ncnc3[nH]ncc23)cc1
[6]
  T/C: 27 % of control
[7]
  T/C: 25 % of control
[8]
  T/C: 4 % of control

## CCCCOC(=O)C1(N)CCCC1
dose: 28.0 mg/kg/injection, schedule: Q01DX011 (ip), vehicle: saline
  T/C: 52 % of control
dose: 56.0 mg/kg/injection, schedule: Q01DX011 (ip), vehicle: saline
  T/C: 24 % of control

## CC(C)CNC(=S)N/N=C/c1ccccc1
dose: 75.0 mg/kg/injection, schedule: Q02DX006 (ip), vehicle: other
  T/C: 70 % of control
dose: 100.0 mg/kg/injection, schedule: Q02DX006 (ip), vehicle: other
  T/C: 94 % of control

## O=c1[nH]cnc2n[nH]nc12
dose: 150.0 mg/kg/injection, schedule: Q01DX011 (ip), vehicle: saline
  T/C: 55 % of control
[1]
  T/C: 20 % of control

## CCOC(N)=O
[1]
  T/C: 34 % of control
dose: 300.0 mg/kg/injection, schedule: Q01DX011 (ip), vehicle: saline
  T/C: 38 % of control
dose: 400.0 mg/kg/injection, schedule: Q01DX011 (ip), vehicle: saline
  T/C: 20 % of control
dose: 500.0 mg/kg/injection, schedule: Q02DX006 (ip), vehicle: water
  T/C: 49 % of control
dose: 600.0 mg/kg/injection, schedule: Q01DX011 (ip), vehicle: saline
  T/C: 3 % of control
dose: 600.0 mg/kg/injection, schedule: Q02DX006 (ip), vehicle: water
  T/C: 34 % of control

## Nc1nc(F)nc2c1ncn2C1OC(CO)C(O)C1O (stereo not drawn)
dose: 2.0 mg/kg/injection, schedule: Q01DX011 (ip), vehicle: carboxymethylcellulose (CMC)
  T/C: 87 % of control

## O=C(O)c1[nH]c(=O)[nH]c(=O)c1Br
[9]
  T/C: 54 % of control

## C=CC(CN1CC1)OC(C)=O (stereo not drawn)
dose: 1.0 mg/kg/injection, schedule: Q01DX011 (oral), vehicle: saline
  T/C: 63 % of control
dose: 1.0 mg/kg/injection, schedule: Q#A X022 (ip), vehicle: saline
  T/C: 92 % of control
dose: 2.0 mg/kg/injection, schedule: Q01DX011 (ip), vehicle: saline
  T/C: 66 % of control
dose: 2.0 mg/kg/injection, schedule: Q01DX011 (oral), vehicle: saline
  T/C: 49 % of control
dose: 2.0 mg/kg/injection, schedule: Q#A X022 (ip), vehicle: saline
  T/C: 43 % of control
dose: 3.25 mg/kg/injection, schedule: Q01DX011 (oral), vehicle: saline
  T/C: 38 % of control
[2]
  T/C: 38 % of control
dose: 4.0 mg/kg/injection, schedule: Q01DX011 (oral), vehicle: saline
  T/C: 26 % of control
dose: 4.0 mg/kg/injection, schedule: Q01DX011 (sc), vehicle: saline
  T/C: 14 % of control
dose: 6.0 mg/kg/injection, schedule: Q03DX004 (ip), vehicle: saline
  T/C: 88 % of control
dose: 7.5 mg/kg/injection, schedule: Q01DX011 (oral), vehicle: saline
  T/C: 15 % of control
[3]
  T/C: 17 % of control
dose: 8.0 mg/kg/injection, schedule: Q01DX011 (oral), vehicle: saline
  T/C: 21 % of control
dose: 8.0 mg/kg/injection, schedule: Q01DX011 (sc), vehicle: saline
  T/C: 8 % of control
dose: 12.0 mg/kg/injection, schedule: Q03DX004 (ip), vehicle: saline
  T/C: 59 % of control
dose: 16.0 mg/kg/injection, schedule: Q01DX011 (oral), vehicle: saline
  T/C: 5 % of control
dose: 24.0 mg/kg/injection, schedule: Q03DX004 (ip), vehicle: saline
  T/C: 11 % of control

## CN(C)c1ncnc2c1ncn2C1OC(CO)C(N)C1O (stereo not drawn)
[10]
  T/C: 23 % of control
[6]
  T/C: 62 % of control
[7]
  T/C: 13 % of control
dose: 35.0 mg/kg/injection, schedule: Q01DX011 (ip), vehicle: saline
  T/C: 9 % of control

## NCC(=O)NC1(C(=O)O)CCCC1 (H-Gly-[Ac5c]-OH)
[6]
  T/C: 58 % of control
[9]
  T/C: 37 % of control
dose: 100.0 mg/kg/injection, schedule: Q01DX011 (ip), vehicle: saline
  T/C: 9 % of control

## C1CN1c1nc(N2CC2)nc(N2CC2)n1
dose: 0.1 mg/kg/injection, schedule: Q01DX011 (ip), vehicle: saline
  T/C: 28 % of control
dose: 0.11 mg/kg/injection, schedule: Q01DX011 (ip), vehicle: saline
  T/C: 44 % of control
dose: 0.13 mg/kg/injection, schedule: Q01DX011 (ip), vehicle: saline
  T/C: 61 % of control
dose: 0.15 mg/kg/injection, schedule: Q01DX011 (ip), vehicle: saline
  T/C: 21 % of control
dose: 0.2 mg/kg/injection, schedule: Q01DX011 (ip), vehicle: saline
  T/C: 12 % of control
dose: 0.25 mg/kg/injection, schedule: Q02DX006 (ip), vehicle: saline
  T/C: 80 % of control
dose: 0.3 mg/kg/injection, schedule: Q01DX011 (ip), vehicle: saline
  T/C: 5 % of control
dose: 0.5 mg/kg/injection, schedule: Q01DX011 (ip), vehicle: saline
  T/C: 19 % of control
dose: 0.5 mg/kg/injection, schedule: Q02DX006 (ip), vehicle: saline
  T/C: 121 % of control

## O=C(O)c1cc(=O)[nH]c(=S)[nH]1
[10]
  T/C: 91 % of control
[7]
  T/C: 121 % of control
[8]
  T/C: 78 % of control
[9]
  T/C: 82 % of control

## CCCCn1cnc2c(SSc3ncnc4c3ncn4CCCC)ncnc21
dose: 3.75 mg/kg/injection, schedule: Q01DX011 (ip), vehicle: saline
  T/C: 26 % of control
dose: 7.5 mg/kg/injection, schedule: Q01DX011 (ip), vehicle: saline
  T/C: 7 % of control
dose: 15.0 mg/kg/injection, schedule: Q01DX011 (ip), vehicle: saline
  T/C: 7 % of control
[7]
  T/C: 6 % of control

## Cn1cnc([N+](=O)[O-])c1Sc1nc(N)nc2nc[nH]c12
dose: 5.0 mg/kg/injection, schedule: Q01DX011 (oral), vehicle: saline
  T/C: 2 % of control

## Nc1ncnc2n[nH]nc12
[10]
  T/C: 60 % of control
[7]
  T/C: 85 % of control
[8]
  T/C: 46 % of control

## NC(=S)N/N=C/c1ccc([N+](=O)[O-])cc1
dose: 75.0 mg/kg/injection, schedule: Q02DX006 (ip), vehicle: saline
  T/C: 22 % of control
dose: 100.0 mg/kg/injection, schedule: Q02DX006 (ip), vehicle: saline
  T/C: 31 % of control

## O=c1[nH]cc(F)c(=O)[nH]1
[4]
  T/C: 7 % of control
[5]
  T/C: 61 % of control

## CCCCNc1ncnc2c1cnn2C
[8]
  T/C: 3 % of control
[9]
  T/C: 13 % of control

From PubChem BioAssay AID218 (DTP/NCI, 2004)
